In PubChem BioAssay (NCI):
“And” between values parts separate entries of the source, which are not always exact repeats. Identical values can stand only once.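 Values below derive from 48-hour exposures of cells grown in 96-well plates, with endpoints linearly interpolated between the two concentrations bracketing the appropriate inhibition level. Here, GI50 denotes the concentration required for 50% inhibition of growth. TGI: concentration producing complete growth inhibition.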

How the values were obtained:
Assay in all cases: growth of human tumour cells (NCI), 48 h
BT-549 breast = system: BT-549 breast
CAKI-1 renal = system: CAKI-1 renal
CCRF-CEM leukemia = system: CCRF-CEM leukemia
HL-60(TB) leukemia = system: HL-60(TB) leukemia
MDA-MB-231 breast = system: MDA-MB-231 breast
NCI-H226 lung = system: NCI-H226 lung
NCI-H522 lung = system: NCI-H522 lung
SR leukemia = system: SR leukemia
T-47D breast = system: T-47D breast
TK-10 renal = system: TK-10 renal

SMILES	GI50 (BT-549 breast)	TGI (BT-549 breast)	GI50 (CAKI-1 renal)	TGI (CAKI-1 renal)	GI50 (CCRF-CEM leukemia)	TGI (CCRF-CEM leukemia)	GI50 (HL-60(TB) leukemia)	TGI (HL-60(TB) leukemia)	GI50 (MDA-MB-231 breast)	TGI (MDA-MB-231 breast)	GI50 (NCI-H226 lung)	TGI (NCI-H226 lung)	GI50 (NCI-H522 lung)	TGI (NCI-H522 lung)	GI50 (SR leukemia)	TGI (SR leukemia)	GI50 (T-47D breast)	TGI (T-47D breast)	GI50 (TK-10 renal)	TGI (TK-10 renal)
C#Cc1cnc(=O)n(C2CC(O)C(CO)O2)c1 (configuration not stated)	> 100 µM	> 100 µM	> 62.2 µM	> 100 µM	13.5 µM	> 32.8 µM	> 100 µM	> 100 µM	> 100 µM	> 100 µM	> 100 µM	> 100 µM	> 100 µM	> 100 µM	91.5 µM	> 100 µM	> 100 µM	> 100 µM	> 100 µM	> 100 µM
CC(=O)c1ccc(Nc2cc(-c3ccccc3)nc3c(O)cccc23)cc1	28.7 µM	> 100 µM	41.3 µM	> 100 µM	5.05 µM	34.6 µM	3.13 µM	30.6 µM	24 µM	55.7 µM	28.2 µM	> 100 µM	2.98 µM	9.64 µM	1.59 µM	49.5 µM	16.6 µM	63.7 µM	18.1 µM	84.8 µM
O=C(CCN1CCN(c2cnc3ccccc3n2)CC1)c1csc2ccccc12	14.9 µM	30 µM	18.9 µM	35.8 µM	19.2 µM	> 100 µM	35.2 µM	> 100 µM	26 µM	63 µM	35.7 µM	> 100 µM	18.4 µM	42.8 µM	36.1 µM	> 100 µM	18.2 µM	43.4 µM	19.5 µM	42.6 µM
CN1CCN(Cc2ccc(C(=O)Nc3cncc(C#Cc4cnc(N)c5ccccc45)c3)cc2C(F)(F)F)CC1	12.7 µM	25.4 µM	1.7 µM	3.69 µM	2.91 µM	9.07 µM	1.12 µM	2.99 µM	1.37 µM	2.87 µM	3.18 µM	27.5 µM	1.95 µM	4.26 µM	2.09 µM	5.17 µM	11.6 µM	32.2 µM	1.99 µM	3.74 µM
Cc1ccc2c(C(C[N+](=O)[O-])c3cccs3)c(-c3ccccc3)[nH]c2c1 (configuration not stated)	1.92 µM	7.29 µM	1.04 µM	5.12 µM	1.38 µM	> 33.3 µM	1.14 µM	14.6 µM	1.65 µM	6.31 µM	3.38 µM	8.61 µM	1.23 µM	8.03 µM	1.43 µM	> 33.3 µM	2.22 µM	27.4 µM	7.46 µM	18.5 µM
COC(=O)C(=O)CC(=O)CCn1ncc(Cl)c(Cl)c1=O	14.4 µM	27.7 µM		9.42 µM		9.72 µM		9.68 µM	7.88 µM	20.7 µM		39.3 µM		7.35 µM		5.76 µM	21.2 µM	40.2 µM		> 85.5 µM
Oc1ccccc1/C=N/Nc1ccc2ccccc2n1	8.08 µM	> 100 µM	2.98 µM	> 100 µM	0.862 µM	> 100 µM	2.44 µM	> 100 µM	3.35 µM	> 100 µM	4.6 µM	> 100 µM	2.36 µM	9.41 µM	4.35 µM	> 100 µM	3.83 µM	> 100 µM	7.69 µM	77.5 µM
CN1CCN(CC#Cc2cccc(C(=O)c3cnn(-c4ccc(F)cc4)c3N)c2)CC1	> 25 µM	> 25 µM	> 25 µM	> 25 µM	> 25 µM	> 25 µM	24.6 µM	> 25 µM	> 25 µM	> 25 µM	> 25 µM	> 25 µM	> 25 µM	> 25 µM	> 25 µM	> 25 µM	> 25 µM	> 25 µM	> 25 µM	> 25 µM
COc1ccc(C(=S)N2CCN(c3cccc(Cl)c3)CC2)cc1	> 100 µM	> 100 µM	> 100 µM	> 100 µM	> 100 µM	> 100 µM	> 100 µM	> 100 µM	43.9 µM	> 100 µM	> 100 µM	> 100 µM	15.3 µM	> 100 µM	> 100 µM	> 100 µM	65.8 µM	> 100 µM	> 100 µM	> 100 µM
CCn1c(-c2nonc2N)nc2c(C#CCN)ncc(OCCCN)c21	> 25 µM	> 25 µM	> 25 µM	> 25 µM	> 25 µM	> 25 µM	> 25 µM	> 25 µM	> 25 µM	> 25 µM	> 25 µM	> 25 µM	> 25 µM	> 25 µM	> 25 µM	> 25 µM	> 25 µM	> 25 µM	> 25 µM	> 25 µM
COC1(C(=O)N2Cc3nc(Cl)nc(N[C@H](C)c4cc(N)cc(C(F)(F)F)c4)c3C2)CCOCC1	12.4 µM	28.2 µM	25.4 µM	> 100 µM	31.3 µM	99 µM	22.6 µM	66.4 µM	15.9 µM	31.3 µM	18.2 µM	72.2 µM	9.23 µM	55.2 µM	2.92 µM	48.8 µM	20.8 µM	83.5 µM	1.23 µM	45.8 µM
CN=C(N)N/N=C(\c1ccccc1)c1ccc(Br)cc1	1.5 µM	12.7 µM	0.596 µM	13.2 µM	0.32 µM	4.66 µM	0.216 µM	0.567 µM	0.358 µM	2.09 µM	1.09 µM	11.8 µM	0.21 µM	0.616 µM	0.31 µM	2.42 µM	2.96 µM	26.7 µM	0.709 µM	8.47 µM
Clc1ccccc1C(c1ccccc1)(c1ccccc1)n1ccnc1	2.54 µM	6.87 µM and 20.6 µM	2.34 µM	15.3 µM and 50.5 µM		31.4 µM	1.72 µM	5.21 µM	2.13 µM	6.72 µM and 38.6 µM	3.13 µM	17.7 µM	2.66 µM	8.89 µM and 18.9 µM	1.86 µM	6.93 µM	2.3 µM	14.5 µM and 30.4 µM	3.88 µM	13.5 µM and 30.9 µM
CC(C)(C)c1cc(O)c(O)c(C(C)(C)C)c1	8.71 µM	21 µM	2.79 µM	8.63 µM	2.33 µM	7.49 µM	2.69 µM	6.8 µM	8.55 µM	23.2 µM	6.35 µM	22.8 µM	1.77 µM	3.29 µM	2.38 µM	6.64 µM	2.36 µM	5.02 µM	3.08 µM	7.4 µM
